Test results: PubChem BioAssay AID2060907 (Molecular Pharmacology Branch, DTP, NCI, 2025)
Values belong to the molecule of their own block, whether it stands above or below them.

System: 388556-164-R-J1-PDC complex spheroid viability
Experiment: Anticancer human tumor 388556-164-R-J1-PDC patient-derived colon adenocarcinoma cell line growth inhibition [RAS]
Details: for viability, T/C: stronger effect = lower value
Summary of the method: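 Agents were tested in combination matrices in half-log decrements from a top concentration at or near clinical Cmax (10 microM if undetermined). Targets were multi-cell spheroids of tumour lines plus HUVEC and MSC stromal cells.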
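Also: spheroids exposed to compound for 7 days before readout.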
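For viability, T/C in this document: 100% = DMSO vehicle control luminescence.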

IC50 (curve of first compound, second compound 0.0316 µM): 98.5 nM
IC50 (curve of first compound, second compound 0.1 µM): 78.5 nM
IC50 (curve of first compound, second compound 0.316 µM): 48.7 nM
IC50 (curve of first compound, second compound 1 µM): 41.6 nM
IC50 (curve of first compound, second compound 3.16 µM): 39.2 nM
IC50 (curve of first compound, second compound 10 µM): 10.6 nM
SMILES: CC(C)n1nc(-c2ccc3oc(N)nc3c2)c2c(N)ncnc21 + C#Cc1c(F)ccc2cc(O)cc(-c3ncc4c(N5CC6CCC(C5)N6)nc(OCC56CCCN5CC(F)C6)nc4c3F)c12
viability, T/C (second compound 0.0316 µM, first compound 0.000316 µM): 98.6%
viability, T/C (second compound 0.0316 µM, first compound 0.001 µM): 97.7%
viability, T/C (second compound 0.0316 µM, first compound 0.00316 µM): 89.9%
viability, T/C (second compound 0.0316 µM, first compound 0.01 µM): 75.7%
viability, T/C (second compound 0.0316 µM, first compound 0.0316 µM): 64%
viability, T/C (second compound 0.0316 µM, first compound 0.1 µM): 49.4%
viability, T/C (second compound 0.1 µM, first compound 0.000316 µM): 95.7%
viability, T/C (second compound 0.1 µM, first compound 0.001 µM): 99.7%
viability, T/C (second compound 0.1 µM, first compound 0.00316 µM): 90.6%
viability, T/C (second compound 0.1 µM, first compound 0.01 µM): 78.5%
viability, T/C (second compound 0.1 µM, first compound 0.0316 µM): 62.6%
viability, T/C (second compound 0.1 µM, first compound 0.1 µM): 46.6%
viability, T/C (second compound 0.316 µM, first compound 0.000316 µM): 91.6%
viability, T/C (second compound 0.316 µM, first compound 0.001 µM): 97.1%
viability, T/C (second compound 0.316 µM, first compound 0.00316 µM): 79.5%
viability, T/C (second compound 0.316 µM, first compound 0.01 µM): 79.5%
viability, T/C (second compound 0.316 µM, first compound 0.0316 µM): 56%
viability, T/C (second compound 0.316 µM, first compound 0.1 µM): 37.8%
viability, T/C (second compound 1 µM, first compound 0.000316 µM): 90.5%
viability, T/C (second compound 1 µM, first compound 0.001 µM): 88%
viability, T/C (second compound 1 µM, first compound 0.00316 µM): 69.9%
viability, T/C (second compound 1 µM, first compound 0.01 µM): 71.5%
viability, T/C (second compound 1 µM, first compound 0.0316 µM): 55.6%
viability, T/C (second compound 1 µM, first compound 0.1 µM): 35.5%
viability, T/C (second compound 3.16 µM, first compound 0.000316 µM): 82.2%
viability, T/C (second compound 3.16 µM, first compound 0.001 µM): 74.4%
viability, T/C (second compound 3.16 µM, first compound 0.00316 µM): 68.5%
viability, T/C (second compound 3.16 µM, first compound 0.01 µM): 73.5%
viability, T/C (second compound 3.16 µM, first compound 0.0316 µM): 52.3%
viability, T/C (second compound 3.16 µM, first compound 0.1 µM): 31.4%
viability, T/C (second compound 10 µM, first compound 0.000316 µM): 74.6%
viability, T/C (second compound 10 µM, first compound 0.001 µM): 59.9%
viability, T/C (second compound 10 µM, first compound 0.00316 µM): 60.1%
viability, T/C (second compound 10 µM, first compound 0.01 µM): 53.3%
viability, T/C (second compound 10 µM, first compound 0.0316 µM): 40.3%
viability, T/C (second compound 10 µM, first compound 0.1 µM): 29.9%

IC50 (curve of compound): 90.4 nM [middle of 4 runs]
SMILES: CCc1c2c(nc3ccc(O)cc13)-c1cc3c(c(=O)n1C2)COC(=O)[C@]3(O)CC
viability, T/C (compound 0.000949 µM): 108% [middle of 4 runs]
viability, T/C (compound 0.003 µM): 93.6% [middle of 4 runs]
viability, T/C (compound 0.00949 µM): 84.6% [middle of 4 runs]
viability, T/C (compound 0.03 µM): 68.7% [middle of 4 runs]
viability, T/C (compound 0.0949 µM): 50.5% [middle of 4 runs]
viability, T/C (compound 0.3 µM): 32% [middle of 4 runs]

IC50 (curve of first compound, second compound 0.000949 µM): 46.6 nM
IC50 (curve of first compound, second compound 0.003 µM): 28.1 nM
IC50 (curve of first compound, second compound 0.00949 µM): 19.6 nM
IC50 (curve of first compound, second compound 0.03 µM): 7.33 nM
IC50 (curve of first compound, second compound 0.0949 µM): < 0.949 nM
IC50 (curve of first compound, second compound 0.3 µM): < 0.949 nM
SMILES: CCc1c2c(nc3ccc(O)cc13)-c1cc3c(c(=O)n1C2)COC(=O)[C@]3(O)CC + CCn1c(-c2cc(N3CCN(C)CC3)cnc2C(C)OC)c2c3cc(ccc31)-c1csc(n1)CC(NC(=O)C1CC1C)C(=O)N1CCCC(N1)C(=O)OCC(C)(C)C2
viability, T/C (second compound 0.000949 µM, first compound 0.000949 µM): 90.3%
viability, T/C (second compound 0.000949 µM, first compound 0.003 µM): 89.5%
viability, T/C (second compound 0.000949 µM, first compound 0.00949 µM): 66.3%
viability, T/C (second compound 0.000949 µM, first compound 0.03 µM): 56%
viability, T/C (second compound 0.000949 µM, first compound 0.0949 µM): 42.1%
viability, T/C (second compound 0.000949 µM, first compound 0.3 µM): 23.5%
viability, T/C (second compound 0.003 µM, first compound 0.000949 µM): 89.9%
viability, T/C (second compound 0.003 µM, first compound 0.003 µM): 83.6%
viability, T/C (second compound 0.003 µM, first compound 0.00949 µM): 67.5%
viability, T/C (second compound 0.003 µM, first compound 0.03 µM): 46.3%
viability, T/C (second compound 0.003 µM, first compound 0.0949 µM): 36.4%
viability, T/C (second compound 0.003 µM, first compound 0.3 µM): 21.8%
viability, T/C (second compound 0.00949 µM, first compound 0.000949 µM): 82.2%
viability, T/C (second compound 0.00949 µM, first compound 0.003 µM): 78.4%
viability, T/C (second compound 0.00949 µM, first compound 0.00949 µM): 55.7%
viability, T/C (second compound 0.00949 µM, first compound 0.03 µM): 41.8%
viability, T/C (second compound 0.00949 µM, first compound 0.0949 µM): 36.5%
viability, T/C (second compound 0.00949 µM, first compound 0.3 µM): 18.7%
viability, T/C (second compound 0.03 µM, first compound 0.000949 µM): 58.2%
viability, T/C (second compound 0.03 µM, first compound 0.003 µM): 55.5%
viability, T/C (second compound 0.03 µM, first compound 0.00949 µM): 50.5%
viability, T/C (second compound 0.03 µM, first compound 0.03 µM): 37.8%
viability, T/C (second compound 0.03 µM, first compound 0.0949 µM): 30.2%
viability, T/C (second compound 0.03 µM, first compound 0.3 µM): 16.6%
viability, T/C (second compound 0.0949 µM, first compound 0.000949 µM): 44.3%
viability, T/C (second compound 0.0949 µM, first compound 0.003 µM): 39.1%
viability, T/C (second compound 0.0949 µM, first compound 0.00949 µM): 48.9%
viability, T/C (second compound 0.0949 µM, first compound 0.03 µM): 30.1%
viability, T/C (second compound 0.0949 µM, first compound 0.0949 µM): 25.9%
viability, T/C (second compound 0.0949 µM, first compound 0.3 µM): 14.3%
viability, T/C (second compound 0.3 µM, first compound 0.000949 µM): 32.4%
viability, T/C (second compound 0.3 µM, first compound 0.003 µM): 31.5%
viability, T/C (second compound 0.3 µM, first compound 0.00949 µM): 28.2%
viability, T/C (second compound 0.3 µM, first compound 0.03 µM): 30.1%
viability, T/C (second compound 0.3 µM, first compound 0.0949 µM): 21.2%
viability, T/C (second compound 0.3 µM, first compound 0.3 µM): 11.5%
